Test system: SREBP-2
Experiment: Western blot, SREBP-2 protein level in HepG2
Format: cell-based, human
Conditions: 50 µM, 24 h
Experimental: A total of 1.5 × 10^5 HepG2 cells/well (24-well plate) were treated with 50 μM of P5 and P5 analogs for 24 h. Immunoblotting experiments were performed using optimized protocol. See Supplementary Materials for further details.
PBS for 1.5 h at RT. LDLR primary antibody solution (1:3000 in 5% BSA in PBS, 25 µL/well) was incubated O/N at +4 °C. Subsequently, the primary antibody solution was discarded and each sample was washed 5 times with 100 µL/well of PBS (each wash was for 5 min at RT). Goat anti-rabbit Ig-HRP secondary antibody solution (Santa Cruz) (1:6000 in 5% BSA in PBS, 50 µL/well), was added and incubated 1 h at RT. […] The reaction was stopped with 2 M H2SO4 and then the absorbance at 450 nm was measured using the microplate reader Synergy H1 (Winoo-ski, VT, USA). After the read, cells were stained by adding 1 X Janus Green stain, incubat-ing for 5 min at RT. […]
Afterward 100 µL 0.5 M HCl for well were added and incubated for 10 min. After 10 sec-onds shaking, the OD at 595 nm was measured using the microplate reader Synergy H1 […]
Fluorescent LDL Uptake. […] The degree of LDL uptake was measured using the Synergy H1 fluo-rescent plate reader (Winooski, VT, USA) (excitation and emission wavelengths 540 and 570 nm, respectively). Fluorescent LDL-uptake was finally assessed following optimized […]

LILPKHSDAD [Peptide P5, natural peptide derived from a peptic lupin protein hydrolysate]
SREBP-2 protein level (words, P5): upregulation of the SREBP-2 transcription factor level
